Assay [1] is described as follows: mouse embryonic fibroblast toxicity – cell-based, plate reader, dry powder, set 2, cytotoxicity control, dose response (AID 652280). In kind it is functional. The following applies: NIH3T3.
A further assay has as its target Vasopressin V1b receptor (Homo sapiens, UniProt P47901). The assay is described as follows: Late-stage results from the probe development effort to identify antagonists of arginine vasopressin receptor 1a (AVPR1a): fluorescence-based cell-based dose response AVPR1b inhibition counterscreen assay. The assay is classed as functional. (A counterscreen serves to expose hits that act by an unwanted route or on another target.)

A short description of assay [2]: Late-stage results from the probe development effort to identify antagonists of arginine vasopressin receptor 1a (AVPR1a): fluorescence-based cell-based dose response AVPR1a inhibition assay. The assay is classed as functional.
The next assay concerns the target Vasopressin V2 receptor (Homo sapiens, UniProt P30518). Kind of assay: Late-stage results from the probe development effort to identify antagonists of arginine vasopressin receptor 1a (AVPR1a): fluorescence-based cell-based dose response AVPR2 inhibition counterscreen assay. The assay is classed as functional.
A short description of assay [3]: Late-stage results from the probe development effort to identify antagonists of arginine vasopressin receptor 1a (AVPR1a): fluorescence-based cell-based dose response OXTR inhibition counterscreen assay. In kind it is functional.
The nature of assay [4]: Dd2 parasite growth inhibition in erythrocytes – SYBR Green, dry powder samples, set 9, dose response (AID 1159568). In kind it is functional, cell-based.
Assay [5] can be described thus: reduced cellular PGC1a acetyl-lysine signal – cell-based, cherry-picked samples, dose response (AID 720514).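 Also: potency may reflect raised or lowered acetylation signal.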 In kind it is functional.
A short description of assay [6]: viability loss in A549 lung cells – cell-based, 24 h, CellTiter-Glo luminescence, cherry-picks, cytotoxicity control, dose response (AID 1053115). The assay is classed as functional. As to conditions: A549, 24 h. (In ATP-based viability assays light output follows the ATP content of the culture.)
Assay [7] is described as follows: A Cell-Based Confirmatory Screen for Compounds that Inhibit VEEV, TC-83 (8). In kind it is functional.
A short description of assay [8]: A Cell-Based Confirmatory Screen for Compounds that Inhibit VEEV, TC-83 (7). In kind it is functional.
For assay [9], the target named is T1, Oxysterols receptor LXR-beta (Homo sapiens, UniProt P55055).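 Also: Cell-based luminescence dose-response assay of agonist activity at LXR, run as a confirmatory counterscreen to a daf-12 agonist screen; HEK293 cells with Gal4-LXR fusion and GAL4-driven luciferase reporter; agonist potency from rising luciferase signal of a Gal4-LXR reporter.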
T1 sequence (P55055 whole entry): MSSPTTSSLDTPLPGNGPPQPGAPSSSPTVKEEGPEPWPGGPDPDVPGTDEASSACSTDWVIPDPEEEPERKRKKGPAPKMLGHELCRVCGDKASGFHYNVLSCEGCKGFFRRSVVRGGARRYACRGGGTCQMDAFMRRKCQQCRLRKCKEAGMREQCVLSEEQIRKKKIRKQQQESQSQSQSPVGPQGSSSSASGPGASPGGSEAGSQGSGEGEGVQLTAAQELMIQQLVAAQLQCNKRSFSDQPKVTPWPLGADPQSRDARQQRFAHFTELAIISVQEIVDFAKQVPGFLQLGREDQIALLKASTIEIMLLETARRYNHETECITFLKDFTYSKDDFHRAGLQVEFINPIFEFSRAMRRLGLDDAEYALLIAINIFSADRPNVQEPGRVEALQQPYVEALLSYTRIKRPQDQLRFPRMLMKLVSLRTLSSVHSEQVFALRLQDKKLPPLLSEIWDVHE
In kind it is functional, cell-based.

Assay [10] in a line: toxicity to A549 lung cells – cell-based, plate reader, dry powder, set 6, cytotoxicity control, dose response (AID 743312). In kind it is functional.
Assay [11] can be described thus: toxicity to HepG2 liver cells – cell-based, plate reader, dry powder, set 6, cytotoxicity control, dose response (AID 743311). The assay is classed as functional.
The nature of assay [12]: Dd2 malaria parasite growth inhibition potency – SYBR Green, dry powder samples, dose response (AID 1159566).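 Also: potency for growth inhibition with lower SYBR green DNA signal.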 The assay is classed as functional, cell-based.
Assay [13] in a line: growth inhibition of yeast DHODH-expressing 3D7 parasites – SYBR Green, dry powder samples, dose response (AID 1159570).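 Also: parasite growth measured after 72 hours of compound exposure.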 The assay is classed as functional, cell-based.
A short description of assay [14]: P. falciparum Dd2 growth inhibitors, dose response, SYBR Green, cherry-picked samples (AID 1159567). In kind it is functional, cell-based.
Assay [15] is described as follows: growth inhibition of PfATP4-mutant resistant parasites – NITD609-resistant line, SYBR Green, dry powder, dose response (AID 1159571).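 Also: parasites synchronized at ring stage by sorbitol before testing.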 In kind it is functional, cell-based.
For another assay, the target named is Phospholipase D1 (Homo sapiens, UniProt Q13393). The assay is described as follows: PLD1 Cellular Concentration Response Study. The assay is classed as functional.
The next assay concerns the target Phospholipase D2 (Homo sapiens, UniProt O14939). Kind of assay: PLD2 Cellular Concentration Response Study. In kind it is functional.

As usually defined, the AC50 is the midpoint of the concentration-response curve, whichever way the signal moves. As usually defined, the IC50 is the concentration at which inhibition is half-maximal. As usually defined, the EC50 is the concentration needed to bring the measured effect to its halfway point.

Calls of active or inactive are those of the source. Bounds are passed on as bounds.

Vasopressin V1b receptor, sequence (P47901 whole entry): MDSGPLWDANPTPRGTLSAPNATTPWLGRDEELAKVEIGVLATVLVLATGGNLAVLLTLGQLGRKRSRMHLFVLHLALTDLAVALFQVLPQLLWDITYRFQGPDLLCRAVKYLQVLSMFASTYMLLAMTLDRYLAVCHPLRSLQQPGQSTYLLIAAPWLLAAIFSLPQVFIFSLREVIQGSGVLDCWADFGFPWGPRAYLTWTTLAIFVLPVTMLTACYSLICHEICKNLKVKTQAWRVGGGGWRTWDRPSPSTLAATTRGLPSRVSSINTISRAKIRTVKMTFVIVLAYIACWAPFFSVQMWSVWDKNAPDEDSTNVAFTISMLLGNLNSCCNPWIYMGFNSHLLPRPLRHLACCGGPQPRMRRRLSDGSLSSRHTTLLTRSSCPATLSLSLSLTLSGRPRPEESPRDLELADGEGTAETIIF
Phospholipase D2, sequence (O14939 whole entry): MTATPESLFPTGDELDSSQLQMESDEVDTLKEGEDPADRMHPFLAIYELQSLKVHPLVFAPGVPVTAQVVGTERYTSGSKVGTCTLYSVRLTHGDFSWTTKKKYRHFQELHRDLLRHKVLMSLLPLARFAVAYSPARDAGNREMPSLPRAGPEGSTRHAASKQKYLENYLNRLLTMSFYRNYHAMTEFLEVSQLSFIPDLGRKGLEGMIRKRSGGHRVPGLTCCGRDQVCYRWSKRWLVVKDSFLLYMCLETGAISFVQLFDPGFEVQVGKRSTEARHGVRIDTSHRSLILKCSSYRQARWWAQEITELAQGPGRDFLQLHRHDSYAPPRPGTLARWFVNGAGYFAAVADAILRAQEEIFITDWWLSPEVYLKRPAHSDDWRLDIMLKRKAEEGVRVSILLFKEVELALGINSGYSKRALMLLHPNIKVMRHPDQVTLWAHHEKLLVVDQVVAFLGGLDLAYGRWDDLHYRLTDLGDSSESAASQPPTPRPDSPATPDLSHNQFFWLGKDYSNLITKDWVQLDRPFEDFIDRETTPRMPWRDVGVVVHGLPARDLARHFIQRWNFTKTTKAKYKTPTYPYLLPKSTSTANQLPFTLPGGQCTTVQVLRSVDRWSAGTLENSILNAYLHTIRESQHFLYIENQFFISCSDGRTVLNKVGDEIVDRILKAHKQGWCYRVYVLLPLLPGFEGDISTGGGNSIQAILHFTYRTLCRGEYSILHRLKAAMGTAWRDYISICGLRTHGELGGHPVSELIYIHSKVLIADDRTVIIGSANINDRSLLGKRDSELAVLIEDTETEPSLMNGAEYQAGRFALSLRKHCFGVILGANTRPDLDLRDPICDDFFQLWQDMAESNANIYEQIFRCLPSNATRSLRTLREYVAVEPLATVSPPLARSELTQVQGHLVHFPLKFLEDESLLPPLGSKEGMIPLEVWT
Phospholipase D1, sequence (Q13393 whole entry): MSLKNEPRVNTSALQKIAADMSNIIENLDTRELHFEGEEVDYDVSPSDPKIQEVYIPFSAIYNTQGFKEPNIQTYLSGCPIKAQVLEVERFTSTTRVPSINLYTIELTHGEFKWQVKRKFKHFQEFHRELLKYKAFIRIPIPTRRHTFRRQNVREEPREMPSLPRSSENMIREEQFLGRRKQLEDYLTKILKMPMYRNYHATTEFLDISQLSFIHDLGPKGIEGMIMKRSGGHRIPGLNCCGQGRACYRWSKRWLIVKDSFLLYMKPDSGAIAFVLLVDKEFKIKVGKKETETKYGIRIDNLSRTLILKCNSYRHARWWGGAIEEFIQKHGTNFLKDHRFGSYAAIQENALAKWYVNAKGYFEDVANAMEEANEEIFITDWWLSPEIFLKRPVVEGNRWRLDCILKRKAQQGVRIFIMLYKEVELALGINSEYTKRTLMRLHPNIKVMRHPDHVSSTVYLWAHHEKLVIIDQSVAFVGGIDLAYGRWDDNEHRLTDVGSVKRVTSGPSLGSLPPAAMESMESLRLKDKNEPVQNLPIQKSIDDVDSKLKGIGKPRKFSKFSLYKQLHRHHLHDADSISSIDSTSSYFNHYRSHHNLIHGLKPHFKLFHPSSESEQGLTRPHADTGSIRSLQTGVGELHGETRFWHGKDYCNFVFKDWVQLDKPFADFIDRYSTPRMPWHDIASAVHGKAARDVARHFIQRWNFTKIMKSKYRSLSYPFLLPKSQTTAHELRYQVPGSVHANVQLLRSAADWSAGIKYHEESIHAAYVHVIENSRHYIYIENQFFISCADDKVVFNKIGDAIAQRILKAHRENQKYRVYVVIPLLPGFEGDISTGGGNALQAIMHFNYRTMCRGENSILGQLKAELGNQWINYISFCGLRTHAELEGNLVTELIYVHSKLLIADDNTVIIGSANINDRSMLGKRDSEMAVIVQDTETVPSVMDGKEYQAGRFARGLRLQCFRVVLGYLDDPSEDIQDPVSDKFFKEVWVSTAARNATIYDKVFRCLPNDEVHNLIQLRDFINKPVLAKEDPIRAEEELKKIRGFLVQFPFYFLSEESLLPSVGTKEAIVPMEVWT
Vasopressin V2 receptor, sequence (P30518 whole entry): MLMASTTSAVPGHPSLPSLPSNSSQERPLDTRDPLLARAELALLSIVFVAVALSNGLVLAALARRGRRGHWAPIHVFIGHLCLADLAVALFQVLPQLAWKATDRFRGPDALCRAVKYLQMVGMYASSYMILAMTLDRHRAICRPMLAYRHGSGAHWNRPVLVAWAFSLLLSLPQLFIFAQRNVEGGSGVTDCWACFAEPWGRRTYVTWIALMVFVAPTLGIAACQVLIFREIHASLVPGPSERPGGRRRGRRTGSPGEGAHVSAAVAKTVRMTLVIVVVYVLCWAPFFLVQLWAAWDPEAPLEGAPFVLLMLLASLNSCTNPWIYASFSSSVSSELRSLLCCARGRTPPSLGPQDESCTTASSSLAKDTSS

`CN(C)CC#Cc1cccc(-c2nc(C(=O)Nc3ccc(-c4ccccc4)cc3)cc3c2[C@H](CCO)N([S+]([O-])C(C)(C)C)C3)c1` (stereo not given in full): the AC50 in [1] was 9.5 µM (active).
For `O=C(C1CCN(c2cc(C(F)(F)F)ccn2)CC1)N(CC1CC1)c1ccc(Cl)cc1`, the IC50 on Vasopressin V1b receptor was > 50 µM (inactive); in [2], 0.0367 µM (active); on Vasopressin V2 receptor, > 50 µM (inactive); in assay [3] it was > 50 µM (inactive).
As to `Fc1cccc(CN2C[C@@H]3N[C@H](C2)[C@@H]3c2ccc(/C=C/c3ccccc3)cc2)c1`, the AC50 in assay [4] is 4.6 µM (active); in assay [5], 13.4 µM (active).
In the case of `CN1c2ccc(-c3ccc(C#N)cc3)cc2[C@@H]2[C@@H](CCN2C(=O)C2CCCCC2)[C@H]1CO`, the AC50 in assay [6] was 47.5 µM (active).
Turning to `CN1CCN(C)/C(=N/c2ccc([N+](=O)[O-])cc2C(=O)Nc2ccccc2)C1`, the figures for the IC50 in assay [7] and in assay [8] were < 0.073 µM (active) and < 0.04 µM (active), respectively.
As to `Cc1csc(N/N=C/c2ccccc2F)n1`, the EC50 (in the assay “cells”; in [9]) was > 67.6 µM (inactive) throughout.
For the compound `Sc1nc2cccc(Cl)c2n1CCOc1ccccc1`, the AC50 in assay [10] was 20.9 µM (active); in assay [11], > 52 µM (inactive).
As for `Cc1ccc(-c2ccccc2[C@H]2[C@@H](C#N)N(C(=O)c3cccc(F)c3)[C@H]2CO)cc1`, the AC50 in assay [12] was 1.26 µM (active); in assay [13], 1.49 µM (active); in assay [14], 2.52 µM (active); in assay [15], 6.78 µM (active).
In the case of `COc1cccc(C(=O)N2CNC(=O)C23CCN(CCNC(=O)c2ccc4ccccc4c2)CC3)c1`, the results for the IC50 at Phospholipase D1 and at Phospholipase D2 were 19 µM (active) and 2.05 µM (active), respectively.

The values above are taken from ChEMBL document CHEMBL1201862, “PubChem BioAssay data set” (2004).
